In patent publication US12329158B2, “Large-scale methods of uniformly coating packaging surfaces with a volatile antimicrobial to preserve food freshness” (AGROFRESH INC., priority 2013, dated 2025):
Values after ≈ are worked out from the molar mass of the structure shown.

Key:
[1] = system: Trichophyton mentagrophytes; experiment: In vitro contact assay (Example 26); type: cell-based; settings: 5 days at 28 C, 100% control; for MIC: Trichophyton mentagrophytes, 120 h, read-out: MIC (mg/L) Trichophyton mentagrophytes
Method: (§1) Half-strength Potato Dextrose Agar (PDA) is amended with a mixture of one of the test compounds in acetone or methanol to a final concentration of 50, 10, 2, 0.4 or 0.08 mg/L. A 3-mL volume of the amended media is added to each well of the microtiter plate. […] The plates are sealed with a clear film and incubated inverted for 5 days at 28° C.

Trichophyton rubrum [2] = experiment: In vitro contact assay (Example 26); type: cell-based; settings: 5 days at 28 C, 100% control; for MIC: Trichophyton rubrum, 120 h, read-out: MIC (mg/L) Trichophyton rubrum
Method: as §1

Epidermophyton floccus [3] = experiment: In vitro contact assay (Example 26); type: cell-based; settings: 5 days at 28 C, 100% control; for MIC: Epidermophyton, 120 h, read-out: MIC (mg/L) Epidermophyton floccus
Method: as §1

[4] = system: Trichophyton mentagrophytes; experiment: In vitro volatile assay (Example 26); type: cell-based; settings: 5 days at 28 C, 100% control; for MIC: Trichophyton mentagrophytes, 120 h, read-out: MIC (mg/L) Trichophyton mentagrophytes
Method: (§2) Volatile assay: 6-well (16.5 mL volume per well) microtiter plates are used in an in vitro inhibition assay for Compounds A and 31, and compared to other registered fungicides (5-fluorocytosine, Amphotericin B, aspofungin diacetate, Fluconazole and Itraconazole). A 7.5-mL volume of half strength PDA is added to each well. After drying, a mycelial plug (5 mm diameter) is aseptically obtained from actively growing cultures of Epidermophyton floccus, Trichophyton rubrum, or Trichophyton mentagrophytes and placed at the center of the plate with the mycelial side in contact with the agar. A Whatman #1 filter disk (Cat. No. 1001-325) is placed, in duplicate, on the underside of a polyethylene PCR plate sealing film. […] The headspace around the inoculum is then sealed inside the well by the film with the adhering disk containing the fungicide and incubated inverted for 5 days at 28° C.

Trichophyton rubrum [5] = experiment: In vitro volatile assay (Example 26); type: cell-based; settings: 5 days at 28 C, 100% control; for MIC: Trichophyton rubrum, 120 h, read-out: MIC (mg/L) Trichophyton rubrum
Method: as §2

Epidermophyton floccus [6] = experiment: In vitro volatile assay (Example 26); type: cell-based; settings: 5 days at 28 C, 100% control; for MIC: Epidermophyton, 120 h, read-out: MIC (mg/L) Epidermophyton floccus
Method: as §2

Penicillium expansum [7] = experiment: Blue mold on apple and pear, volatile assay (Example 25); settings: 50 mg/L, day 3 at 21 C after 5 days at 1 C
Method: Two apples, pears or oranges are placed in a clamshell, and three fresh wounds are made near the equatorial region of each fruit. Each fruit wound is then inoculated with 20 μL of 1×10^6 spores per mL of Penicillium expansum or digitatum suspension, respectively. The inoculum is allowed to dry for two hours prior to treatment application as a volatile or contact.
Volatile Assay: Clamshells are then placed at the bottom of a 2.55-L SnapWare airtight container (Model #109842). […] The solutions are pipetted into Whatman filter disks mounted to the inside lid of the container. The chambers are then incubated at 1° C. for 5 days, removed to 21° C., and evaluated on day 3 by determining the diameter (mm) of rot development (browning) or sporulation.

Penicillium digitatum [8] = experiment: Green mold on orange, volatile assay (Example 25); type: in vivo; settings: 50 mg/L, day 3 at 21 C after 5 days at 1 C
Penicillium digitatum [9] = experiment: Green mold on orange, contact assay (Example 25); type: in vivo; settings: Contact (dip); rate not given; day 3 at 21 C after 5 days at 1 C
Method: (§3) A 250 mL solution of each concentration is used to dip two inoculated fruits, one minute per fruit, performed in triplicate per rate. The dipped fruits are then placed back into the clamshells and then into the SnapWare container and incubated at 1° C. for 5 days. […] Volatile application of Compound A results in excellent inhibition of browning and sporulation, whereas all other active ingredients result in no or little inhibition.

Penicillium expansum [10] = experiment: Blue mold on apple and pear, contact assay (Example 25); type: in vivo; settings: Contact (dip); rate not given; day 3 at 21 C after 5 days at 1 C
Method: as §3

Penicillium expansum [11] = experiment: In vitro volatile assay (Example 24); type: cell-based; settings: 72 h, headspace, 100% control, 3 days at 23 C, read-out: Volatile MIC (mg/L) P. expansum
Method: (§4) Volatile assay: 12-well (6.5 mL volume per well) microtiter plates are used. A 3-mL volume of half strength PDA is added to each well. […] A Whatman #1 filter disk (Cat. No. 1001-0155) is placed, in duplicate, on the underside of a polyethylene PCR plate sealing film. […] The acetone is permitted to evaporate for 5 minutes. The headspace around the inoculum is then sealed inside the well by the film with the adhering disk containing the fungicide. Plates are inverted, placed over the treated disks, and sealed to prevent any of the chemical from flaking from the disk and falling onto the inoculated agar. […] Contact assay: 6-well (16.5 mL volume per well) microtiter plates are used for an in vitro inhibition assay. […] A 7.5-mL volume of the amended media is added to each well of the microtiter plate. […] The plates are sealed with a clear film and incubated for 3 days at 23° C. After incubation, plates are evaluate for percent growth relative to acetone only control.

Botrytis cinerea [12] = experiment: In vitro volatile assay (Example 24); type: cell-based; settings: 72 h, headspace, 100% control, 3 days at 23 C, read-out: Volatile MIC (mg/L) B. cinerea
Method: as §4

Glomerella cingulata = experiment: Volatile MIC assay (Example 9); type: cell-based; settings: Colletotrichum gloeosporioides, 72 h, headspace concentration, 3 days at 23 C, read-out: MIC (mg/L) GLOMCI
Method: (§5) A 3-mL volume of full-strength Potato Dextrose Agar (PDA) is added to each well. […] Plates are inoculated immediately prior to volatile fungicide treatment. A Whatman #1 filter disk (Cat. No. 1001-0155) is placed, in duplicate, on the underside of a polyethylene PCR plate sealing film. […] The acetone is permitted to evaporate for 5 minutes. The headspace around the inoculum is then sealed inside the well by the film with the adhering disk containing the fungicide by inverting the plates over the treated disks and sealing to prevent any of the chemical from flaking from the disk and falling onto the inoculated agar.

Alternaria alternata = experiment: Volatile MIC assay (Example 9); type: cell-based; settings: 72 h, headspace concentration, 3 days at 23 C, read-out: MIC (mg/L) ALTEAL
Method: as §5

Monilinia fructicola = experiment: Volatile MIC assay (Example 9); type: cell-based; settings: 72 h, headspace concentration, 3 days at 23 C, read-out: MIC (mg/L) MONIFC
Method: as §5

Penicillium expansum [13] = experiment: Volatile MIC assay (Example 9); type: cell-based; settings: 72 h, headspace concentration, 3 days at 23 C, read-out: MIC (mg/L) PENIEX
Method: as §5

Botrytis cinerea [14] = experiment: Volatile MIC assay (Example 9); type: cell-based; settings: 72 h, headspace concentration, 3 days at 23 C, read-out: MIC (mg/L) BOTRCI
Method: as §5

P. expansum = experiment: In vitro contact assay, amended agar (Example 24); type: cell-based; settings: Penicillium expansum, 72 h; amended agar; 100% control; 3 days at 23 C; read-out: Contact MIC (mg/L) P. expansum
Method: (§6) Contact assay: 6-well (16.5 mL volume per well) microtiter plates are used for an in vitro inhibition assay. […] A 7.5-mL volume of the amended media is added to each well of the microtiter plate. […] The plates are sealed with a clear film and incubated for 3 days at 23° C. After incubation, plates are evaluate for percent growth relative to acetone only control.

B. cinerea = experiment: In vitro contact assay, amended agar (Example 24); type: cell-based; settings: Botrytis cinerea, 72 h; amended agar; 100% control; 3 days at 23 C; read-out: Contact MIC (mg/L) B. cinerea
Method: as §6

Row | Molecule | Apple Browning (mm) (Penicillium expansum [7]) | Apple Sporulation (mm) (Penicillium expansum [7]) | Pear Browning (mm) (Penicillium expansum [7]) | Pear Sporulation (mm) (Penicillium expansum [7]) | Orange Sporulation (mm) (Penicillium digitatum [8]) | Orange Sporulation (mm) (Penicillium digitatum [9]) | Apple Browning (mm) (Penicillium expansum [10]) | Apple Sporulation (mm) (Penicillium expansum [10]) | Pear Browning (mm) (Penicillium expansum [10]) | Pear Sporulation (mm) (Penicillium expansum [10]) | MIC (Glomerella cingulata) | MIC (Alternaria alternata) | MIC (Monilinia fructicola) | MIC (Penicillium expansum [13]) | MIC (Botrytis cinerea [14]) | also measured
1 | Nc1nc(=O)[nH]cc1F [5-Fluorocytosine, 5-fluorocytosine] |  |  |  |  |  |  |  |  |  |  |  |  |  |  |  | MIC [1]: > 50 mg/L; MIC (Trichophyton rubrum [2]): > 50 mg/L; MIC (Epidermophyton floccus [3]): > 50 mg/L; MIC [4]: > 50 mg/L; MIC (Trichophyton rubrum [5]): > 50 mg/L; MIC (Epidermophyton floccus [6]): > 50 mg/L
2 | C[C@@H]1[C@H](O)[C@@H](C)/C=C/C=C/C=C/C=C/C=C/C=C/C=C/[C@H](O[C@@H]2O[C@H](C)[C@@H](O)[C@H](N)[C@@H]2O)C[C@@H]2O[C@](O)(C[C@@H](O)C[C@@H](O)[C@H](O)CC[C@@H](O)C[C@@H](O)CC(=O)O[C@H]1C)C[C@H](O)[C@H]2C(=O)O [Amphotericin B] |  |  |  |  |  |  |  |  |  |  |  |  |  |  |  | MIC (mg/L) Trichophyton mentagrophytes [1]: >50 mg/L; MIC (mg/L) Trichophyton rubrum (Trichophyton rubrum [2]): >50 mg/L; MIC (mg/L) Epidermophyton floccus (Epidermophyton floccus [3]): 50.0 mg/L (≈ 54.1 µM); MIC (mg/L) Trichophyton mentagrophytes [4]: >50 mg/L; MIC (mg/L) Trichophyton rubrum (Trichophyton rubrum [5]): >50 mg/L; MIC (mg/L) Epidermophyton floccus (Epidermophyton floccus [6]): >50 mg/L
3 | O=C(Nc1ccccc1-c1ccc(Cl)cc1)c1cccnc1Cl [Boscalid] | 10.3 mm | 2.4 mm | 14.3 mm | 3.6 mm | 30.3 mm | >50 mm | 7.0 mm | 0.8 mm | 8.6 mm | 2.3 mm |  |  |  |  |  | 
4 | COB1OCc2ccccc21 [Compound 6] |  |  |  |  |  |  |  |  |  |  | 17.9 mg/L (≈ 121 µM) | 4.5 mg/L (≈ 30.4 µM) | 8.9 mg/L (≈ 60.1 µM) | 17.9 mg/L (≈ 121 µM) | 2.2 mg/L (≈ 14.9 µM) | MIC (Penicillium expansum [11]): 17.9 mg/L (≈ 121 µM); MIC (Botrytis cinerea [12]): 4.5 mg/L (≈ 30.4 µM); MIC (P. expansum): 2 mg/L (≈ 13.5 µM); MIC (B. cinerea): 2 mg/L (≈ 13.5 µM)
5 | COCCCOB1OCc2ccccc21 [Compound 7] |  |  |  |  |  |  |  |  |  |  | 71.4 mg/L (≈ 347 µM) | 8.9 mg/L (≈ 43.2 µM) | 8.9 mg/L (≈ 43.2 µM) | 17.9 mg/L (≈ 86.9 µM) | 2.2 mg/L (≈ 10.7 µM) | 
6 | COCCOB1OCc2ccccc21 [Compound 8] |  |  |  |  |  |  |  |  |  |  | 71.4 mg/L (≈ 372 µM) | 8.9 mg/L (≈ 46.3 µM) | 4.5 mg/L (≈ 23.4 µM) | 35.7 mg/L (≈ 186 µM) | 2.2 mg/L (≈ 11.5 µM) | 
7 | CC(C)OB1OCc2ccccc21 [Compound 9] |  |  |  |  |  |  |  |  |  |  | 35.7 mg/L (≈ 203 µM) | 8.9 mg/L (≈ 50.6 µM) | 8.9 mg/L (≈ 50.6 µM) | 8.9 mg/L (≈ 50.6 µM) | 2.2 mg/L (≈ 12.5 µM) | 
8 | OB1OCc2cc(Cl)ccc21 [Compound 201] |  |  |  |  |  |  |  |  |  |  | 9.3 mg/L (≈ 55.2 µM) | 16.1 mg/L (≈ 95.6 µM) | 8.5 mg/L (≈ 50.5 µM) | 29.5 mg/L (≈ 175 µM) | 3.8 mg/L (≈ 22.6 µM) | 
9 | OC(Cn1cncn1)(Cn1cncn1)c1ccc(F)cc1F [Fluconazole] |  |  |  |  |  |  |  |  |  |  |  |  |  |  |  | MIC [1]: > 50 mg/L; MIC (Trichophyton rubrum [2]): 50 mg/L (≈ 163 µM); MIC (Epidermophyton floccus [3]): 10 mg/L (≈ 32.7 µM); MIC [4]: > 50 mg/L; MIC (Trichophyton rubrum [5]): > 50 mg/L; MIC (Epidermophyton floccus [6]): > 50 mg/L
10 | N#Cc1c[nH]cc1-c1cccc2c1OC(F)(F)O2 [Fludioxonil] | 11.2 mm | 3.1 mm | 12.8 mm | 2.8 mm | 40.8 mm | 8.3 mm | 2.9 mm | 0.0 mm | 3.3 mm | 0.0 mm |  |  |  |  |  | 
11 | C=CCOC(Cn1ccnc1)c1ccc(Cl)cc1Cl (stereo not shown) [Imazalil] | 11.1 mm | 3.0 mm | 14.3 mm | 3.4 mm | 41.4 mm | 0.0 mm | 6.9 mm | 0.9 mm | 7.9 mm | 1.0 mm |  |  |  |  |  | 
12 | CCC(C)n1ncn(-c2ccc(N3CCN(c4ccc(OCC5COC(Cn6cncn6)(c6ccc(Cl)cc6Cl)O5)cc4)CC3)cc2)c1=O (stereo not shown) [Itraconazole] |  |  |  |  |  |  |  |  |  |  |  |  |  |  |  | MIC [1]: > 50 mg/L; MIC (Trichophyton rubrum [2]): > 50 mg/L; MIC (Epidermophyton floccus [3]): > 50 mg/L; MIC [4]: > 50 mg/L; MIC (Trichophyton rubrum [5]): > 50 mg/L; MIC (Epidermophyton floccus [6]): > 50 mg/L
13 | Cc1cc(C)nc(Nc2ccccc2)n1 [Pyrimethanil] | 11.3 mm | 2.6 mm | 14.0 mm | 6.5 mm | 22.3 mm | 0.0 mm | 8.1 mm | 2.4 mm | 8.9 mm | 5.2 mm |  |  |  |  |  | 
14 | c1ccc2[nH]c(-c3cscn3)nc2c1 [Thiabendazole] | 8.4 mm | 2.0 mm | 12.9 mm | 3.0 mm | >50 mm | 0.0 mm | 8.2 mm | 1.9 mm | 9.1 mm | 5.4 mm |  |  |  |  |  | 
15 | Caspofungin diacetate |  |  |  |  |  |  |  |  |  |  |  |  |  |  |  | MIC (mg/L) Trichophyton mentagrophytes [1]: 50.0 mg/L; MIC (mg/L) Trichophyton rubrum (Trichophyton rubrum [2]): 10.0 mg/L; MIC (mg/L) Epidermophyton floccus (Epidermophyton floccus [3]): 2.0 mg/L; MIC (mg/L) Trichophyton mentagrophytes [4]: >50 mg/L; MIC (mg/L) Trichophyton rubrum (Trichophyton rubrum [5]): >50 mg/L; MIC (mg/L) Epidermophyton floccus (Epidermophyton floccus [6]): >50 mg/L
